Five compounds from US4775681A, “Method of treating fungal infections with trans-6-[2-substitutedpyrrol-1-yl)alkyl]-4-hydroxypyran-2-ones” (Warner-Lambert Company, priority 1987, dated 1988) can be followed below.

Holding throughout (assay): Antifungal susceptibility, microbroth dilution MIC
Holding throughout (format): cell-based
Background: Broth dilution looks for growth in wells or tubes with falling amounts of substance.

The test system of one assay is Candida albicans. The method, then: (§1) The antimicrobial susceptibilities of eleven strains of Candida albicans, two strains of Candida tropicans, and one strain each of Torulopsis glabrata and Cryptococcus neoformans to several representative compounds of the present invention were tested. For comparison, the known antifungal agents amphotericin-B and ketoconazole were also tested. Minimal inhibitory concentrations (MIC's) for each compound were determined using the microbroth dilution technique described by S. Shadomy, et al, "Laboratory Studies with Antifungal Agents: Susceptibility Tests and Bioassays," pp. 991-999 in Manual Clin. Microbiol., 4th Ed., Amer. Soc. For Microbiol., Washington, D.C., 1985. The compounds tested are as follows and the results of the testing appear in the following Table.

The subject of the next assay is Torulopsis glabrata. The conditions noted are these: Nakaseomyces glabratus; strain 1581; 24 hours. The method, then: as §1
Another assay relates to Cryptococcus neoformans. The note with it: strain 1678, 24 hours. On the procedure: as §1
In a further assay the test system is Candida tropicans. The method, then:
as §1

Where [1] appears, read: ATCC10231, 24 h, strain ATCC 10231.
[2] abbreviates: ATCC13803, strain ATCC 13803, 24 hours.

In brackets after ≈: the same amount, converted by molar mass. Counter-ions that a name gives are not always drawn. Some results are limits rather than exact numbers.

For orientation: MIC means the smallest concentration in the dilution series that meets the test's criterion for growth inhibition. Turning to `CC(C)c1c(Br)c(Br)c(-c2ccc(F)cc2)n1CC[C@@H](O)C[C@@H](O)CC(=O)O` (relative stereo) [Compound 1, 3,4-Dibromo-2-(4-fluorophenyl)-β,δ-dihydroxy-5-(1-methylethyl)-1H-pyrrole-1-heptanoic acid, monosodium salt], the MIC in the assay on Candida albicans (24 h, strain 1570) turned out to be 16 µg/mL; against Candida albicans (24 h, strain 1571) it was 32 µg/mL; in the assay on Candida albicans (24 h, strain 1574), 16 µg/mL; in the assay on Candida albicans (24 h, strain 1575), 32 µg/mL; against Candida albicans (24 h, strain 1576), 15 µg/mL; with Candida albicans (24 h, strain 1577), 16 µg/mL. In addition, the MIC came to 16 µg/mL with Candida albicans (24 h, strain 1578); 16 µg/mL against Candida albicans (24 h, strain 1579); 16 µg/mL in the assay with Candida albicans (24 h, strain B4b); 32 µg/mL in the assay on Candida albicans (24 h, strain M752); 16 µg/mL against Candida albicans (setting [1]); 128 µg/mL against Torulopsis glabrata. The MIC was 128 µg/mL in the assay with Cryptococcus neoformans; 64 µg/mL in the assay on Candida tropicans (setting [2]); 16 µg/mL with Candida tropicans (strain 1573, 24 hours).

On to `CCOC(=O)c1c(Br)c(-c2ccc(F)cc2)n(CC[C@H]2C[C@H](O)CC(=O)O2)c1C(F)(F)F` (relative stereo) [Compound 2, trans-4-Bromo-5-(4-fluorophenyl)-1[2-(tetrahydro-4-hydroxy-6-oxo-2H-pyran-2-yl)-ethyl]-2-(trifluoromethyl)-1H-pyrrole-3-carboxylic acid, ethyl ester], for which the MIC in the assay on Candida albicans (24 h, strain 1570) was 32 µg/mL (≈ 61.3 µM); in the assay on Candida albicans (24 h, strain 1571) it was 64 µg/mL (≈ 123 µM); in the assay with Candida albicans (24 h, strain 1574), 32 µg/mL (≈ 61.3 µM); against Candida albicans (24 h, strain 1575), 32 µg/mL (≈ 61.3 µM); in the assay on Candida albicans (24 h, strain 1576) it was 32 µg/mL (≈ 61.3 µM); in the assay with Candida albicans (24 h, strain 1577), 32 µg/mL (≈ 61.3 µM). Further, the MIC stood at 32 µg/mL (≈ 61.3 µM) in the assay on Candida albicans (24 h, strain 1578); 32 µg/mL (≈ 61.3 µM) in the assay with Candida albicans (24 h, strain 1579); 16 µg/mL (≈ 30.6 µM) in the assay on Candida albicans (24 h, strain B4b); 32 µg/mL (≈ 61.3 µM) with Candida albicans (24 h, strain M752); 16 µg/mL (≈ 30.6 µM) against Candida albicans (setting [1]); 128 µg/mL (≈ 245 µM) in the assay on Torulopsis glabrata. The MIC in the assay with Cryptococcus neoformans is 64 µg/mL (≈ 123 µM); in the assay with Candida tropicans (setting [2]) it was 64 µg/mL (≈ 123 µM); in the assay on Candida tropicans (strain 1573, 24 hours), 16 µg/mL (≈ 30.6 µM).

For `CC(C)c1c(Cl)c(Cl)c(-c2ccc(F)cc2)n1CC[C@@H](O)C[C@@H](O)CC(=O)O` (relative stereo) [Compound 3, 3,4-Dichloro-2-(4-fluorophenyl)-β,δ-hydroxy-5-(1-methylethyl)-1H-pyrrole-1-heptanoic acid, monosodium salt], the MIC is 64 µg/mL against Candida albicans (24 h, strain 1570); 64 µg/mL with Candida albicans (24 h, strain 1571); 64 µg/mL in the assay on Candida albicans (24 h, strain 1574); 64 µg/mL in the assay with Candida albicans (24 h, strain 1575); 64 µg/mL against Candida albicans (24 h, strain 1576); 32 µg/mL against Candida albicans (24 h, strain 1577). Besides, the MIC came out at 64 µg/mL in the assay on Candida albicans (24 h, strain 1578); 64 µg/mL against Candida albicans (24 h, strain 1579); 32 µg/mL against Candida albicans (24 h, strain B4b); 64 µg/mL against Candida albicans (24 h, strain M752); 32 µg/mL with Candida albicans (setting [1]); 128 µg/mL against Torulopsis glabrata. In addition, the MIC against Cryptococcus neoformans is 128 µg/mL; in the assay on Candida tropicans (setting [2]), 128 µg/mL; in the assay on Candida tropicans (strain 1573, 24 hours), 32 µg/mL.

Turning to `C[C@@H]1[C@H](O)[C@@H](C)/C=C/C=C/C=C/C=C/C=C/C=C/C=C/[C@H](O[C@@H]2O[C@H](C)[C@@H](O)[C@H](N)[C@@H]2O)C[C@@H]2O[C@](O)(C[C@@H](O)C[C@@H](O)[C@H](O)CC[C@@H](O)C[C@@H](O)CC(=O)O[C@H]1C)C[C@H](O)[C@H]2C(=O)O` [AMP-B, Amphotericin-B, reference compound], the MIC is 8 µg/mL (≈ 8.66 µM) in the assay on Candida albicans (24 h, strain 1570); 2 µg/mL (≈ 2.16 µM) in the assay on Candida albicans (24 h, strain 1571); 4 µg/mL (≈ 4.33 µM) in the assay with Candida albicans (24 h, strain 1574); 8 µg/mL (≈ 8.66 µM) against Candida albicans (24 h, strain 1575); 4 µg/mL (≈ 4.33 µM) in the assay with Candida albicans (24 h, strain 1576); 8 µg/mL (≈ 8.66 µM) in the assay with Candida albicans (24 h, strain 1577). Also, the minimum inhibitory concentration (MIC) against Candida albicans (24 h, strain 1578) came out at 8 µg/mL (≈ 8.66 µM); against Candida albicans (24 h, strain 1579) it was 4 µg/mL (≈ 4.33 µM); with Candida albicans (24 h, strain B4b) it was 4 µg/mL (≈ 4.33 µM); against Candida albicans (24 h, strain M752), 8 µg/mL (≈ 8.66 µM); against Candida albicans (setting [1]) it was 4 µg/mL (≈ 4.33 µM); against Torulopsis glabrata, 8 µg/mL (≈ 8.66 µM). Moreover, the MIC turned out to be 4 µg/mL (≈ 4.33 µM) in the assay with Cryptococcus neoformans; 8 µg/mL (≈ 8.66 µM) against Candida tropicans (setting [2]); 4 µg/mL (≈ 4.33 µM) in the assay with Candida tropicans (strain 1573, 24 hours).

For the compound `CC(=O)N1CCN(c2ccc(OCC3COC(Cn4ccnc4)(c4ccc(Cl)cc4Cl)O3)cc2)CC1` (stereo not drawn) [Keto, Ketoconazole, reference compound], the MIC in the assay with Candida albicans (24 h, strain 1570) is 0.25 µg/mL (≈ 0.47 µM); against Candida albicans (24 h, strain 1571) it was 0.125 µg/mL (≈ 0.235 µM); against Candida albicans (24 h, strain 1574) it was 0.25 µg/mL (≈ 0.47 µM); with Candida albicans (24 h, strain 1575), 0.5 µg/mL (≈ 0.941 µM); against Candida albicans (24 h, strain 1576), over 0.5 µg/mL; in the assay on Candida albicans (24 h, strain 1577), 0.125 µg/mL (≈ 0.235 µM). In addition, the MIC in the assay with Candida albicans (24 h, strain 1578) is 0.25 µg/mL (≈ 0.47 µM); against Candida albicans (24 h, strain 1579) it was 0.5 µg/mL (≈ 0.941 µM); against Candida albicans (24 h, strain B4b), 0.25 µg/mL (≈ 0.47 µM); in the assay on Candida albicans (24 h, strain M752) it was 0.25 µg/mL (≈ 0.47 µM); in the assay on Candida albicans (setting [1]) it was over 0.5 µg/mL; against Torulopsis glabrata it was over 0.5 µg/mL. For the same compound, the MIC is over 0.5 µg/mL in the assay on Cryptococcus neoformans; 0.5 µg/mL (≈ 0.941 µM) against Candida tropicans (setting [2]); over 0.5 µg/mL in the assay on Candida tropicans (strain 1573, 24 hours).
